Here are results for 29 molecules from ChEMBL document CHEMBL4483862, “Open-source discovery of chemical leads for next-generation chemoprotective antimalarials” (2018).

In this assay the test system is Plasmodium berghei. The assay can be described thus: Luciferase/luciferin-expressing antifolate-resistant parasites were used to infect a culture of HepG2 cells that were pre-incubated with compounds. Infected hepatocytes emit light due to the luciferase reaction. Assay results are presented as the percent inhibition of light emission compared to control. […]. The format is functional. The following applies: sporozoite; for IC90: read-out: LUCIFERASE INFECTION ASSAY - IC90.

On to `COc1cc(/C=C2\COC/C(=C\c3ccc(O)c(OC)c3)C2=O)ccc1O`, for which the concentration for an effect of 90% (IC90) (usually the concentration needed for an effect of 90%) is greater than 8.96 µM. Where the note is “HEPG2TOX_HILL_SLOPE 3.66, HEPG2TOX_R_SQUARED 0.976, PBLUC_HILL_SLOPE 1.71, PBLUC_R_SQUARED 0.466, read-out: LUCIFERASE INFECTION ASSAY - IC50”, the half-maximal inhibitory concentration (IC50) (usually the concentration at which inhibition is half-maximal) was greater than 8.96 µM.

Consider `CC(C)Nc1ccc(Nc2ccccc2)cc1`, for which the IC90 was 3.79 µM. Moreover, where the note is “HEPG2TOX_HILL_SLOPE 3.79, HEPG2TOX_R_SQUARED 0.984, PBLUC_HILL_SLOPE 20.8, PBLUC_R_SQUARED 0.712, read-out: LUCIFERASE INFECTION ASSAY - IC50”, the half-inhibitory concentration (IC50) stood at 3.41 µM.

Regarding `CCc1ccc(NC(=O)C[n+]2c3n(c4c(F)c(F)ccc42)CCCCC3)cc1`, the IC90 worked out at 9.39 µM. For the same molecule, the IC50 (HEPG2TOX_HILL_SLOPE 3.71, HEPG2TOX_R_SQUARED 0.507, PBLUC_HILL_SLOPE 2.96, PBLUC_R_SQUARED 0.697, read-out: LUCIFERASE INFECTION ASSAY - IC50) worked out at 4.47 µM.

Take `CN1/C(=C\C(=O)C[n+]2cccc(Br)c2)C(C)(C)c2ccccc21`: the IC90 is greater than 10 µM. For the same molecule, the 50% inhibitory concentration (IC50) (HEPG2TOX_HILL_SLOPE 3.72, HEPG2TOX_R_SQUARED 0.897, PBLUC_HILL_SLOPE 2.59, PBLUC_R_SQUARED 0.674, read-out: LUCIFERASE INFECTION ASSAY - IC50) was found to be 4.52 µM.

Take `O=C(Nc1nonc1-c1cccs1)c1sc2ccccc2c1Cl`: the IC90 is 3.36 µM. The IC50 (HEPG2TOX_HILL_SLOPE 3.76, HEPG2TOX_R_SQUARED 0.735, PBLUC_HILL_SLOPE 21.7, PBLUC_R_SQUARED 0.795, read-out: LUCIFERASE INFECTION ASSAY - IC50) was 3.04 µM.

As to `COc1ccc(-c2cnc3cnc(-c4ccc(O)cc4)cn23)cc1`, the concentration for an effect of 90% (IC90) is greater than 10.4 µM. Further, the half-inhibitory concentration (IC50) (HEPG2TOX_HILL_SLOPE 3.68, HEPG2TOX_R_SQUARED 0.904, PBLUC_HILL_SLOPE 3.01, PBLUC_R_SQUARED 0.439, read-out: LUCIFERASE INFECTION ASSAY - IC50) was 5.92 µM.

As to `COc1ccc(/C=C2\CSc3ccc(Cl)cc3C2=O)cc1`, the IC90 turned out to be 5.42 µM. Where the note is “HEPG2TOX_HILL_SLOPE 3.81, HEPG2TOX_R_SQUARED 0.977, PBLUC_HILL_SLOPE 10.6, PBLUC_R_SQUARED 0.089, read-out: LUCIFERASE INFECTION ASSAY - IC50”, the IC50 worked out at 4.41 µM.

In the case of `Cc1ccc(Nc2ccc(-c3nc4ccccc4[nH]3)cn2)cc1C`, the IC90 amounted to 4.25 µM. The concentration for half-maximal inhibition (IC50) (HEPG2TOX_HILL_SLOPE 3.79, 0.829, HEPG2TOX_R_SQUARED 0.701, 0.968, PBLUC_HILL_SLOPE 2.85, 14.2, PBLUC_R_SQUARED 0.393, 0.513, read-out: LUCIFERASE INFECTION ASSAY - IC50) came out at 2.27 µM.

With `COc1ccc(-c2csc3ncnc(Sc4nnnn4CC4CCCO4)c23)cc1` (stereo not drawn), the IC90 is greater than 10 µM. Moreover, the IC50 (HEPG2TOX_HILL_SLOPE 3.82, HEPG2TOX_R_SQUARED 0.683, PBLUC_HILL_SLOPE 2.52, PBLUC_R_SQUARED 0.576, read-out: LUCIFERASE INFECTION ASSAY - IC50) was determined as 6.48 µM.

Consider `O=C(Nc1cc(C(F)(F)F)cc(C(F)(F)F)c1)Nc1sccc1Cl`, for which the IC90 was determined as 2.93 µM. Under “HEPG2TOX_HILL_SLOPE 3.73, HEPG2TOX_R_SQUARED 0.682, PBLUC_HILL_SLOPE 3.61, PBLUC_R_SQUARED 0.656, read-out: LUCIFERASE INFECTION ASSAY - IC50”, the IC50 was found to be 1.59 µM.

Consider `O=S(=O)(Nc1cc(-c2ccc(Cl)cc2)nn1-c1ccc(I)cc1)c1cccc(F)c1`, for which the IC90 came to 2.83 µM. The IC50 (HEPG2TOX_HILL_SLOPE 3.73, HEPG2TOX_R_SQUARED 0.889, PBLUC_HILL_SLOPE 8.27, PBLUC_R_SQUARED 0.455, read-out: LUCIFERASE INFECTION ASSAY - IC50) turned out to be 2.17 µM.

Consider `COc1ccc(O)c(/C=N/Nc2ncc(C(F)(F)F)cc2Cl)c1`, for which the IC90 is 3.73 µM. Moreover, the IC50 (HEPG2TOX_HILL_SLOPE 3.8, HEPG2TOX_R_SQUARED 0.813, PBLUC_HILL_SLOPE 18.3, PBLUC_R_SQUARED 0.305, read-out: LUCIFERASE INFECTION ASSAY - IC50) was determined as 3.31 µM.

As to `O=C(/C=C/c1cc([N+](=O)[O-])ccc1Cl)c1ccc(N2CCOCC2)c(F)c1`, the IC90 is greater than 10 µM. Further, for the setting “HEPG2TOX_HILL_SLOPE 3.72, HEPG2TOX_R_SQUARED 0.763, PBLUC_HILL_SLOPE 12.8, PBLUC_R_SQUARED 0.291, read-out: LUCIFERASE INFECTION ASSAY - IC50”, the IC50 came out at 8.87 µM.

As for `O=C(Nc1ccccc1O)c1ccccc1NS(=O)(=O)c1ccc(Cl)s1`, the concentration for an effect of 90% (IC90) worked out at 7.2 µM. For the same molecule, the concentration for half-maximal inhibition (IC50) (HEPG2TOX_HILL_SLOPE 3.8, HEPG2TOX_R_SQUARED 0.66, PBLUC_HILL_SLOPE 5.25, PBLUC_R_SQUARED 0.554, read-out: LUCIFERASE INFECTION ASSAY - IC50) turned out to be 4.74 µM.

For `CN(c1ccccc1)c1ccc(CN2CCC3(CC2)C(=O)N(CCc2ccccc2)C(=O)N3C)cc1`, the 90% effect concentration (IC90) is 3.1 µM. For the same molecule, the IC50 (HEPG2TOX_HILL_SLOPE 3.73, HEPG2TOX_R_SQUARED 0.979, PBLUC_HILL_SLOPE 9.4, PBLUC_R_SQUARED 0.597, read-out: LUCIFERASE INFECTION ASSAY - IC50) is 2.46 µM.

Regarding `COc1cccc(CN2CCN3C=C(C(=O)Nc4ccc(C(C)C)cc4)OC3=NC2=O)c1`, the IC90 is 9.3 µM. Further, the concentration for half-maximal inhibition (IC50) (HEPG2TOX_HILL_SLOPE 3.72, HEPG2TOX_R_SQUARED 0.984, PBLUC_HILL_SLOPE 3.98, PBLUC_R_SQUARED 0.662, read-out: LUCIFERASE INFECTION ASSAY - IC50) was 5.35 µM.

On to `COc1ncccc1C(=O)NNC(=O)c1nc(-c2ccccc2)n(-c2ccccc2)n1`, for which the IC90 turned out to be 3.43 µM. In addition, the half-maximal inhibitory concentration (IC50) (HEPG2TOX_HILL_SLOPE 3.74, HEPG2TOX_R_SQUARED 0.853, PBLUC_HILL_SLOPE 83.7, PBLUC_R_SQUARED 0.266, read-out: LUCIFERASE INFECTION ASSAY - IC50) was 3.34 µM.

Regarding `COc1ccc(CNc2ccc3ncc(-c4ccc(Cl)cc4)n3n2)cc1`, the concentration for an effect of 90% (IC90) is 4.67 µM. Besides, the IC50 (HEPG2TOX_HILL_SLOPE 3.82, HEPG2TOX_R_SQUARED 0.951, PBLUC_HILL_SLOPE 9.74, PBLUC_R_SQUARED 0.491, read-out: LUCIFERASE INFECTION ASSAY - IC50) is 3.73 µM.

In the case of `CCOc1cc2cc(C(=O)c3cc(C)ccc3O)cnc2cc1OC`, the concentration for an effect of 90% (IC90) was 9.38 µM. For the setting “HEPG2TOX_HILL_SLOPE 3.65, HEPG2TOX_R_SQUARED 0.956, PBLUC_HILL_SLOPE 5.3, PBLUC_R_SQUARED 0.515, read-out: LUCIFERASE INFECTION ASSAY - IC50”, the IC50 is 6.19 µM.

Consider `COC(=O)c1cc(C#N)c(S(C)(=O)=O)s1`, for which the 90% effect concentration (IC90) was greater than 13.5 µM. For the setting “HEPG2TOX_HILL_SLOPE 3.75, HEPG2TOX_R_SQUARED 0.937, PBLUC_HILL_SLOPE 11, PBLUC_R_SQUARED 0.132, read-out: LUCIFERASE INFECTION ASSAY - IC50”, the IC50 was determined as 12.1 µM.

As for `O=C(N/N=C/c1cc(Br)ccc1O)c1ccccc1Oc1ccccc1`, the IC90 worked out at 7.69 µM. Moreover, under “HEPG2TOX_HILL_SLOPE 3.72, HEPG2TOX_R_SQUARED 0.537, PBLUC_HILL_SLOPE 21.6, PBLUC_R_SQUARED 0.145, read-out: LUCIFERASE INFECTION ASSAY - IC50”, the IC50 stood at 6.95 µM.

`Cn1nnnc1Sc1ccc([N+](=O)[O-])c2cnccc12`: the IC90 worked out at 3.42 µM. In addition, the IC50 (HEPG2TOX_HILL_SLOPE 3.78, HEPG2TOX_R_SQUARED 0.957, PBLUC_HILL_SLOPE 12.7, PBLUC_R_SQUARED 0.328, read-out: LUCIFERASE INFECTION ASSAY - IC50) was determined as 2.88 µM.

Take `CC(C)(C)c1ccc(CSCCNC2=CC(=O)CC(c3ccc4c(c3)OCO4)C2)cc1` (stereo not drawn): the IC90 was greater than 7.54 µM. In addition, the IC50 (HEPG2TOX_HILL_SLOPE 3.72, HEPG2TOX_R_SQUARED 0.93, PBLUC_HILL_SLOPE 2.67, PBLUC_R_SQUARED 0.216, read-out: LUCIFERASE INFECTION ASSAY - IC50) came to 3.87 µM.

For `O=C(Nc1cccc(S(=O)(=O)NC2CC2)c1)c1cc(-c2ccccc2)nn1-c1ccccc1`, the 90% effect concentration (IC90) was greater than 10 µM. Moreover, where the note is “HEPG2TOX_HILL_SLOPE 3.71, HEPG2TOX_R_SQUARED 0.26, read-out: LUCIFERASE INFECTION ASSAY - IC50”, the IC50 was greater than 10 µM.

As to `COc1ccc(CN2C(=O)N(C)C3(CCN(Cc4ccc(N(C)c5ccccc5)cc4)CC3)C2=O)cc1`, the concentration for an effect of 90% (IC90) is 3.8 µM. Moreover, the IC50 (HEPG2TOX_HILL_SLOPE 3.68, HEPG2TOX_R_SQUARED 0.977, PBLUC_HILL_SLOPE 4.63, PBLUC_R_SQUARED 0.726, read-out: LUCIFERASE INFECTION ASSAY - IC50) was 2.36 µM.

Consider `C=CCOc1ccccc1C(=O)Nc1nc2c(s1)CN(C(=O)OC(C)(C)C)CC2`, for which the IC90 amounted to 4.73 µM. In addition, the half-inhibitory concentration (IC50) (HEPG2TOX_HILL_SLOPE 3.68, HEPG2TOX_R_SQUARED 0.942, PBLUC_HILL_SLOPE 10.6, PBLUC_R_SQUARED 0.381, read-out: LUCIFERASE INFECTION ASSAY - IC50) is 3.84 µM.

Take `Cc1cccc2nc(CSC(=S)NCc3cccnc3)cn12`: the IC90 was greater than 10 µM. Also, under “HEPG2TOX_HILL_SLOPE 3.71, HEPG2TOX_R_SQUARED 0.958, PBLUC_HILL_SLOPE 13, PBLUC_R_SQUARED 0.345, read-out: LUCIFERASE INFECTION ASSAY - IC50”, the IC50 is 9.61 µM.

As for `Cc1nnnn1/C(=C\c1cccc(F)c1)C(=O)NC(C)c1cc2ccccc2o1` (stereo not drawn), the IC90 was 4.08 µM. Moreover, the IC50 (HEPG2TOX_HILL_SLOPE 3.7, HEPG2TOX_R_SQUARED 0.887, PBLUC_HILL_SLOPE 12.4, PBLUC_R_SQUARED 0.779, read-out: LUCIFERASE INFECTION ASSAY - IC50) is 3.42 µM.

Regarding `COc1ccc(CC(=O)NCc2ccccc2Cl)cc1`, the IC90 is greater than 11.4 µM. Besides, the concentration for half-maximal inhibition (IC50) (HEPG2TOX_HILL_SLOPE 3.79, HEPG2TOX_R_SQUARED 0.83, read-out: LUCIFERASE INFECTION ASSAY - IC50) is greater than 11.4 µM.
